Structures are written as SMILES. ≈ marks a conversion by molar mass, not a printed value. Where “and” joins values, the source holds several entries; their conditions need not be identical. Equal values may be shown once.

From US20250270199A1, “THIAZOLE DERIVATIVES AND METHODS OF USING THE SAME” (Arkansas State University - Jonesboro, priority 2022, published 2025) come the findings set out here.

Test [1] deals with S. aureus ATCC 700699 (Sa 99). The test can be described thus: MIC, broth microdilution, Sa 99. It counts as cell-based. The following applies: replicates from different days separated by comma; for MIC: Staphylococcus aureus, ATCC700699, Table 1, HT series, read-out: Minimum inhibitory concentration (MIC) Sa 99; for Minimum inhibitory concentration (MIC) Sa 99: Table 1, HT series. In outline:
(§1)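 CLSI broth microdilution, top conc 64 μg/mL, serial dilution; duplicates, n = 3 independent runs on separate days.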
(Broth dilution looks for growth in wells or tubes with falling amounts of substance.)

Test [2] relates to S. aureus ATCC 33592 (Sa 92). As to the kind of experiment: MIC, broth microdilution, Sa 92. It counts as cell-based. The following applies: Staphylococcus aureus, ATCC33592; Table 1, HT series; read-out: Minimum inhibitory concentration (MIC) Sa 92. Summed up: as §1
For test [3], the system named is S. aureus ATCC 33591 (Sa 91). The test can be described thus: MIC, broth microdilution, Sa 91. The following applies: Staphylococcus aureus, ATCC33591; Table 1, HT series; read-out: Minimum inhibitory concentration (MIC) Sa 91. It counts as cell-based. In outline:
as §1

Test [4] concerns S. aureus ATCC 25923 (Sa 23). As to the kind of experiment: MIC, broth microdilution, Sa 23. It counts as cell-based. The following applies: replicates from different days separated by comma; for MIC: Staphylococcus aureus, ATCC25923, Table 1, HT series, read-out: Minimum inhibitory concentration (MIC) Sa 23; for Minimum inhibitory concentration (MIC) Sa 23: Table 1, HT series. Summed up: as §1

Test [5] deals with S. aureus ATCC BAA-2312 (Sa 12). The test can be described thus: MIC, broth microdilution, Sa 12. It counts as cell-based. The following applies: Staphylococcus aureus, ATCCBAA2312; Table 1, HT series; read-out: Minimum inhibitory concentration (MIC) Sa 12. In outline: as §1
Test [6] concerns E. faecalis ATCC 29212 (Efs 12). As to the kind of experiment: MIC, broth microdilution, Efs 12. It counts as cell-based. The following applies: replicates from different days separated by comma; for Minimum inhibitory concentration (MIC) Efs 12: Table 1, HT series. Summed up: as §1
In test [7] the test system is Sa UAMS-1 MRSA ATCC 49230 (Sa UAMS). The test can be described thus: MIC, broth microdilution, Sa UAMS. It counts as cell-based, S. aureus. The following applies: Staphylococcus aureus; Table 1, HT series; read-out: Minimum inhibitory concentration (MIC) Sa UAMS. In outline:
as §1

In test [8] the test system is S. aureus subsp. aureus Rosenbach ATCC 25904 (SA Newman). The test can be described thus: MIC, broth microdilution, SA Newman. It counts as cell-based. The following applies: Staphylococcus aureus; Table 1, HT series; read-out: Minimum inhibitory concentration (MIC) Sa Newman. Summed up: as §1
In test [9] the test system is S. aureus LAC MRSA (Sa LAC). As to the kind of experiment: MIC, broth microdilution, Sa LAC. It counts as cell-based. The following applies: Staphylococcus aureus, Table 1, HT series, read-out: Minimum inhibitory concentration (MIC) Sa LAC. As for the experimental part: (§2) The broth microdilution method was utilized to determine MIC values of novel thiazole derivatives against different clinically important Gram-positive bacteria according to the guidelines outlined by the Clinical and Laboratory Standards Institute (CLSI) as reported in our recent papers.^1-5 The starting concentration of compounds for MIC determination was 64 μg/mL serially diluted down the wells and the MIC values were recorded in duplicates in three independent experiments on different days.

The test system of test [10] is S. aureus subsp. aureus Rosenbach BAA-1717 (Sa USA 300). As to the kind of experiment: MIC, broth microdilution, Sa USA 300. It counts as cell-based. The following applies: Staphylococcus aureus; Table 1, HT series; read-out: Minimum inhibitory concentration (MIC) SA USA 300. Summed up: as §1
Test [11] has as its system S. epidermidis ATCC 700296 (Se). As to the kind of experiment: MIC, broth microdilution, Se. As to conditions: Staphylococcus epidermidis, ATCC700296; Table 1, HT series; read-out: Minimum inhibitory concentration (MIC) Se. It counts as cell-based. In outline:
as §1

For test [12], the system named is E. faecalis ATCC 51299 (Efs 99). As to the kind of experiment: MIC, broth microdilution, Efs 99. It counts as cell-based. As to conditions: Enterococcus faecalis, ATCC51299; Table 1, HT series; read-out: Minimum inhibitory concentration (MIC) Efs 99. In outline:
as §1

Test [13] relates to E. faecium ATCC 700221 (Efm 21). The test can be described thus: MIC, broth microdilution, Efm 21. It counts as cell-based. As to conditions: Enterococcus faecium, ATCC700221, Table 1, HT series; read-out: Minimum inhibitory concentration (MIC) Efm 21. Summed up:
as §1

For test [14], the system named is B. subtilis ATCC 6633 (Bs). As to the kind of experiment: MIC, broth microdilution, Bs. It counts as cell-based. As to conditions: Bacillus subtilis, ATCC6633; Table 1, HT series; read-out: Minimum inhibitory concentration (MIC) Bs. The protocol: as §2

With `Oc1ccc(-c2nc(-c3ccc(Br)cc3)cs2)cc1O` [Compound 5, 4-(4-(4-bromophenyl)thiazol-2-yl)benzene-1,2-diol], the MIC worked out at 2 µg/mL (≈ 5.74 µM) in test [1]; 8 µg/mL (≈ 23 µM) in [2]; 4 µg/mL (≈ 11.5 µM) in test [3]; 2 µg/mL (≈ 5.74 µM) in [4]; 8 µg/mL (≈ 23 µM) in test [5]; 8 µg/mL (≈ 23 µM) in test [7]. Besides, the MIC in test [8] came out at 4 µg/mL (≈ 11.5 µM); in [9], 4 µg/mL (≈ 11.5 µM); in [10] it was 8 µg/mL (≈ 23 µM); in test [11] it was 8 µg/mL (≈ 23 µM); in test [12], 16 µg/mL (≈ 45.9 µM); in test [13], 16 µg/mL (≈ 45.9 µM). The MIC in [14] amounted to 16 µg/mL (≈ 45.9 µM). Moreover, the “Minimum inhibitory concentration (MIC) Sa 99” value in [1] is listed as 2, 2, 2 μg/mL. In [4], the “Minimum inhibitory concentration (MIC) Sa 23” value is reported as 2, 2, 2 μg/mL. The “Minimum inhibitory concentration (MIC) Efs 12” value in [6] is 16 μg/mL (2×) and 2 μg/mL.
Regarding `Oc1ccc(-c2nc(-c3ccc(C(F)(F)F)cc3)cs2)cc1O` [Compound 9, 4-(4-(4-(trifluoromethyl)phenyl)thiazol-2-yl)benzene-1,2-diol], the MIC in test [1] is 2 µg/mL (≈ 5.93 µM); in test [2], 8 µg/mL (≈ 23.7 µM); in [3], 4 µg/mL (≈ 11.9 µM); in test [4] it was 2 µg/mL (≈ 5.93 µM); in test [5], 4 µg/mL (≈ 11.9 µM); in test [7] it was 4 µg/mL (≈ 11.9 µM). The MIC in [8] was 4 µg/mL (≈ 11.9 µM); in [9], 8 µg/mL (≈ 23.7 µM); in [10], 4 µg/mL (≈ 11.9 µM); in [11], 8 µg/mL (≈ 23.7 µM); in [12], 16 µg/mL (≈ 47.4 µM); in [13], 16 µg/mL (≈ 47.4 µM). Also, in test [14], the MIC came to 8 µg/mL (≈ 23.7 µM). Moreover, the “Minimum inhibitory concentration (MIC) Sa 99” value in test [1] was 2, 2, 2 μg/mL. In addition, the “Minimum inhibitory concentration (MIC) Sa 23” value in [4] is given as 2, 2, 2 μg/mL. Moreover, the “Minimum inhibitory concentration (MIC) Efs 12” value in test [6] was 16 µg/mL and 2 µg/mL and 8 µg/mL.
With `Oc1ccc(-c2nc(-c3cc(C(F)(F)F)cc(C(F)(F)F)c3)cs2)cc1O` [Compound 10, 4-(4-(3,5-bis(trifluoromethyl)phenyl)thiazol-2-yl)benzene-1,2-diol], the MIC in test [1], in [2], in test [3], in test [4], in test [5] and in test [7] was 2 µg/mL (≈ 4.93 µM) each time. In addition, the MIC in test [8] was 2 µg/mL (≈ 4.93 µM); in [9] it was 2 µg/mL (≈ 4.93 µM); in test [10], 4 µg/mL (≈ 9.87 µM); in test [11], 8 µg/mL (≈ 19.7 µM); in test [12], 8 µg/mL (≈ 19.7 µM); in test [13], 8 µg/mL (≈ 19.7 µM). The MIC in [14] stood at 8 µg/mL (≈ 19.7 µM). Further, in test [1], the “Minimum inhibitory concentration (MIC) Sa 99” value is on record as 2, 2, 2 μg/mL. In addition, in test [4], the “Minimum inhibitory concentration (MIC) Sa 23” value was 1 µg/mL and 2 µg/mL. Also, in test [6], the “Minimum inhibitory concentration (MIC) Efs 12” value was 16 µg/mL and 2 µg/mL and 8 µg/mL.
For `Oc1ccc(-c2nc(-c3ccc(Cl)c(Cl)c3)cs2)cc1` [Compound 41, 4-(4-(3,4-dichlorophenyl)thiazol-2-yl)phenol], the MIC in [1] is 1 µg/mL (≈ 3.1 µM); in test [2], 1 µg/mL (≈ 3.1 µM); in test [3], 1 µg/mL (≈ 3.1 µM); in test [4], 1 µg/mL (≈ 3.1 µM); in [5] it was 1 µg/mL (≈ 3.1 µM); in test [6] (Enterococcus faecalis, ATCC29212, Table 1, HT series, read-out: Minimum inhibitory concentration (MIC) Efs 12), 2 µg/mL (≈ 6.21 µM). The MIC in [7] was 2 µg/mL (≈ 6.21 µM); in test [8], 2 µg/mL (≈ 6.21 µM); in test [10] it was 1 µg/mL (≈ 3.1 µM); in [11], 1 µg/mL (≈ 3.1 µM); in [12], 2 µg/mL (≈ 6.21 µM); in test [13] it was 2 µg/mL (≈ 6.21 µM). In addition, the MIC in [14] came to 4 µg/mL (≈ 12.4 µM).
